Measurements: patent publication US11780826B2 (Amgen Inc., priority 2017, dated 2023)

Test system: Bovine cardiac myofibrils
Experiment: In vitro model of dose-dependent myofibril ATPase modulation (AC1.4, pyruvate kinase/lactate dehydrogenase-coupled ATPase assay at pCa25)
Type: biochemical
Conditions: concentration at which ATPase activity was 1.4-fold higher than the bottom of the dose curve, mean of a minimum of two independent tests
Summary of the method: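 We measure calcium-buffered ATPase activity of detergent-skinned bovine cardiac myofibrils at pH 6.80 and 22° C with 1 mM ATP, using a PK/LDH-coupled NADH readout at 340 nm. Values come from four-parameter dose-response fits, averaged over at least two independent runs.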

AC1.4 [µM] | SMILES
0.09745 | C[C@@H](NC(=O)[C@H]1CCCN1C(=O)[C@@H]1CN(S(=O)(=O)N2CC(C#N)C2)CCO1)c1ccc(C(F)(F)F)cc1F [Example 73, 1-(((2S)-4-((3-cyano-1-azetidinyl)sulfonyl)-2-morpholinyl)carbonyl)-N-((1R)-1-(2-fluoro-4-(trifluoromethyl)phenyl)ethyl)-D-prolinamide]
1.378 | CS(=O)(=O)c1cccc(C(=O)N2CC=C[C@@H]2C(=O)N[C@@H](c2ccc(C(F)(F)F)cc2F)C2CC2)c1 [Example 401, (2R)-N-((R)-cyclopropyl(2-fluoro-4-(trifluoromethyl)phenyl)methyl)-1-(3-(methylsulfonyl)benzoyl)-2,5-dihydro-1H-pyrrole-2-carboxamide]
8.3805 | NS(=O)(=O)c1cc(C(=O)N2CCC[C@@H]2C(=O)N[C@@H](c2ccc(C(F)(F)F)cc2F)C2CC2)c(Cl)cc1F [Example 777, 1-(2-chloro-4-fluoro-5-sulfamoylbenzoyl)-N-((R)-cyclopropyl(2-fluoro-4-(trifluoromethyl)phenyl)methyl)-D-prolinamide]
2.0445 | CS(=O)(=O)c1cccc(C(=O)N2[C@@H](C(=O)N[C@@H](c3ccc(Cl)c(F)c3)C3CC3)C[C@H]3C[C@H]32)c1 [Example 485, (1R,3R,5R)-N-((R)-(4-chloro-3-fluorophenyl)(cyclopropyl)methyl)-2-(3-(methylsulfonyl)benzoyl)-2-azabicyclo[3.1.0]hexane-3-carboxamide]
2.881 | CS(=O)(=O)c1cccc(C(=O)N2CC[C@@H](F)[C@@H]2C(=O)N[C@@H](c2ccc(C(F)(F)F)cc2F)C2CC2)c1 [Example 589, (3R)-N-((R)-cyclopropyl(2-fluoro-4-(trifluoromethyl)phenyl)methyl)-3-fluoro-1-(3-(methylsulfonyl)benzoyl)-D-prolinamide]
1.996 | O=C(N[C@@H](c1cc(F)c(Cl)cc1F)C1COC1)[C@H]1C[C@H]2C[C@H]2N1C(=O)c1cc(C2CC2)ccn1 [Example 471, (1R,3R,5R)-N-((R)-(4-chloro-2,5-difluorophenyl)(3-oxetanyl)methyl)-2-((4-cyclopropyl-2-pyridinyl)carbonyl)-2-azabicyclo[3.1.0]hexane-3-carboxamide]
7.933 | O=C(NCc1ccc(C(F)(F)F)cc1)[C@H]1CCCN1C(=O)[C@H]1CCCN(S(=O)(=O)C2CCOC2)C1 (stereo partly drawn) [Example 766, (2R)-1-((3S)-1-((tetrahydrofuran-3-yl)sulfonyl)piperidine-3-carbonyl)-N-(4-(trifluoromethyl)benzyl)pyrrolidine-2-carboxamide]
1.0255 | O=C(N[C@@H](c1ccc(C(F)(F)F)cc1F)C1CC1)[C@H]1CCCCN1C(=O)c1cccc(C(O)C(F)(F)F)c1 (stereo partly drawn) [Example 347, (2R)-N-((R)-cyclopropyl(2-fluoro-4-(trifluoromethyl)phenyl)methyl)-1-(3-(2,2,2-trifluoro-1-hydroxyethyl)benzoyl)piperidine-2-carboxamide]
1.2258 | N#CC1CN(S(=O)(=O)N2CCC[C@H](C(=O)N3CCC[C@@H]3C(=O)NCc3ccc(C(F)(F)F)cn3)C2)C1 [Example 373, 1-(((3S)-1-((3-cyano-1-azetidinyl)sulfonyl)-3-piperidinyl)carbonyl)-N-((5-(trifluoromethyl)-2-pyridinyl)methyl)-D-prolinamide]
4.1595 | CCc1ccnc(C(=O)N2[C@@H](C(=O)N[C@@H](c3cc(F)c(C(F)(F)F)cc3F)C3CC3)C[C@H]3C[C@H]32)c1 [Example 661, (1R,3R,5R)-N-((R)-cyclopropyl(2,5-difluoro-4-(trifluoromethyl)phenyl)methyl)-2-((4-ethyl-2-pyridinyl)carbonyl)-2-azabicyclo[3.1.0]hexane-3-carboxamide]
8.874 | Cc1noc(C(=O)N2[C@@H](C(=O)N[C@@H](c3cc(F)c(C(F)(F)F)cc3F)C3COC3)C[C@H]3C[C@H]32)c1C [Example 824, (1R,3R,5R)-N-((R)-(2,5-difluoro-4-(trifluoromethyl)phenyl)(oxetan-3-yl)methyl)-2-(3,4-dimethylisoxazole-5-carbonyl)-2-azabicyclo[3.1.0]hexane-3-carboxamide]
2.4 | COc1cc(C(=O)N2[C@@H](C(=O)N[C@@H](c3cc(F)c(C(F)(F)F)cc3F)C3COC3)C[C@H]3C[C@H]32)ccn1 [Example 815, (1R,3R,5R)-N-((R)-(2,5-difluoro-4-(trifluoromethyl)phenyl)(oxetan-3-yl)methyl)-2-(2-methoxyisonicotinoyl)-2-azabicyclo[3.1.0]hexane-3-carboxamide]
4.993 | CN(C)S(=O)(=O)c1cccc(C(=O)N2CCC[C@@H]2C(=O)N[C@H](CO)c2ccc(C(F)(F)F)cc2)c1 [Example 678, 1-(3-(dimethylsulfamoyl)benzoyl)-N-((1S)-2-hydroxy-1-(4-(trifluoromethyl)phenyl)ethyl)-D-prolinamide]
7.244 | O=C(N[C@@H](c1ccc(C(F)(F)F)cc1F)C1CC1)[C@H]1CCCN1C(=O)c1cccc(-c2cc[nH]n2)c1 [Example 745, N-((R)-cyclopropyl(2-fluoro-4-(trifluoromethyl)phenyl)methyl)-1-(3-(1H-pyrazol-3-yl)benzoyl)-D-prolinamide]
1.2153 | CS(=O)(=O)c1cccc(C(=O)N2[C@@H](C(=O)N[C@@H](c3ccc(C(F)(F)F)cc3)C3COC3)C[C@H]3C[C@H]32)c1 [Example 375, (1R,3R,5R)-2-(3-(methylsulfonyl)benzoyl)-N-((R)-3-oxetanyl(4-(trifluoromethyl)phenyl)methyl)-2-azabicyclo[3.1.0]hexane-3-carboxamide]
1.2142 | O=C(N[C@@H](c1cc(F)c(C(F)(F)F)cc1F)C1CC1)[C@H]1C[C@H]2C[C@H]2N1C(=O)c1cc(Cl)cc2cn[nH]c12 [Example 821, (1R,3R,5R)-2-(5-chloro-1H-indazole-7-carbonyl)-N-((R)-cyclopropyl(2,5-difluoro-4-(trifluoromethyl)phenyl)methyl)-2-azabicyclo[3.1.0]hexane-3-carboxamide]
1.8635 | O=C(N[C@@H](c1ccc(C(F)(F)F)cc1F)C1CC1)[C@H]1CCCN1C(=O)c1cccc(C2(F)CN(S(=O)(=O)C3COC3)C2)c1 [Example 451, N-((R)-cyclopropyl(2-fluoro-4-(trifluoromethyl)phenyl)methyl)-1-(3-(3-fluoro-1-(3-oxetanylsulfonyl)-3-azetidinyl)benzoyl)-D-prolinamide]
0.1642 | N#CC1CN(S(=O)(=O)N2CCC[C@H](C(=O)N3CCC[C@@H]3C(=O)N[C@H](c3ccc(C(F)(F)F)cc3)C3CC3)C2)C1 [Example 107, 1-(((3S)-1-((3-cyano-1-azetidinyl)sulfonyl)-3-piperidinyl)carbonyl)-N-((S)-cyclopropyl(4-(trifluoromethyl)phenyl)methyl)-D-prolinamide]

SMILES | AC1.4 [µM]
O=C(N[C@@H](c1cc(F)c(C(F)(F)F)cc1F)[C@H]1C[C@@H](O)C1)[C@H]1C[C@H]2C[C@H]2N1C(=O)c1ccnc(C(F)F)c1 (stereo in doubt) [Example 830, (1R,3R,5R)-N-((R)-(2,5-difluoro-4-(trifluoromethyl)phenyl)((1s,3S)-3-hydroxycyclobutyl)methyl)-2-(2-(difluoromethyl)isonicotinoyl)-2-azabicyclo[3.1.0]hexane-3-carboxamide] | 0.6694
